Reference: PubChem BioAssay (NCI)
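Grown in 96-well plates, cells were treated for 48 hours with each compound at five concentrations. Insufficient inhibition: endpoint recorded as highest concentration tested. GI50 is the concentration that inhibits growth by half. The concentration for full growth arrest is given as TGI.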

Legend:
Experiment in all cases: NCI tumour cell line growth inhibition, 48 h
CAKI-1 renal = tested on: CAKI-1 renal
OVCAR-4 ovarian = tested on: OVCAR-4 ovarian
IGROV1 ovarian = tested on: IGROV1 ovarian
OVCAR-5 ovarian = tested on: OVCAR-5 ovarian
K-562 leukemia = tested on: K-562 leukemia
SK-MEL-5 melanoma = tested on: SK-MEL-5 melanoma
HL-60(TB) leukemia = tested on: HL-60(TB) leukemia
OVCAR-8 ovarian = tested on: OVCAR-8 ovarian
RXF 393 renal = tested on: RXF 393 renal
HOP-92 NSCLC = tested on: HOP-92 NSCLC

Structure (SMILES)	TGI (CAKI-1 renal) [µM]	TGI (OVCAR-4 ovarian) [µM]	TGI (IGROV1 ovarian) [µM]	TGI (OVCAR-5 ovarian) [µM]	TGI (K-562 leukemia) [µM]	TGI (SK-MEL-5 melanoma) [µM]	TGI (HL-60(TB) leukemia) [µM]	TGI (OVCAR-8 ovarian) [µM]	TGI (RXF 393 renal) [µM]	TGI (HOP-92 NSCLC) [µM]	GI50 (CAKI-1 renal) [µM]	GI50 (OVCAR-4 ovarian) [µM]	GI50 (IGROV1 ovarian) [µM]	GI50 (OVCAR-5 ovarian) [µM]	GI50 (K-562 leukemia) [µM]	GI50 (SK-MEL-5 melanoma) [µM]	GI50 (HL-60(TB) leukemia) [µM]	GI50 (OVCAR-8 ovarian) [µM]	GI50 (RXF 393 renal) [µM]	GI50 (HOP-92 NSCLC) [µM]
COc1ccc(C(=O)O)c(Cc2cccc3ccccc23)c1	> 100	> 100	> 100	> 100	> 100	> 100	> 100	> 100	> 100											
Cc1cc(NS(=O)(=O)c2ccc(NC(=O)c3cccc4c(=O)c5ccccc5[nH]c34)cc2)no1	> 100	> 100	> 100	> 100	> 100	> 100	74.6	67.4		> 100										
O=S(O)CCCCSSCCCCSSCCCCS(=O)O	> 100	33.9	> 100	> 100	> 100	24.3	30.6	> 100	> 100											
O=C(C[C@@H](C(=O)NCc1cccc(C(F)(F)F)c1)N1C(=O)[C@@H](N2C(=O)OC[C@@H]2c2ccccc2)[C@H]1/C=C/c1ccccc1)NC1CCN(Cc2ccccc2)CC1	34.4	4.43	32.4	29.9	4.17	12.5	33.8		4.88		14	1.77	13.3	13	1.77	3.47	10.4	3.08	1.87	
O=C(O)c1cc(N=Nc2ccc([As](=O)(O)O)cc2)ccc1O	> 100	> 100	> 100	> 100	> 100	> 100	> 100	> 100	> 100											
COc1cccc(N=Cc2c3ccccc3c(=O)n3c2oc2ccccc23)c1	11.5	> 100	> 100	87.4	6.05	37.1		39	20.9	30.7	2.92	> 100	5.86	27.1	2.09	17.5		7.82		1.68
CC(C)(C)OC(=O)N(CCCN(CCn1c2c(c3ccccc3c1=O)C(=O)c1ccccc1-2)C(=O)OC(C)(C)C)CCn1c2c(c3ccccc3c1=O)C(=O)c1ccccc1-2	> 50	> 50	> 50	> 50	46	> 50	> 50	> 50	> 50		> 50	> 50	34.5	> 50	12.4	> 50	14.1	34.9	25.9	
C#CC[C@]12CC(=O)CC[C@H]1CC(=O)C2	> 100	> 100	> 100		> 100	> 100	> 100	> 100	> 100											
CCOC(=O)[C@H]1Nc2ccc(C)cc2C2c3ccccc3CC21 (stereo not given in full)	> 100	> 100	> 100	> 100	> 100	> 100		> 100	> 100											
CC#CC(=O)Nc1ccccc1CC(c1c[nH]c2ccccc12)c1c[nH]c2ccccc12	58.9		39.2		39.2	29.8	32.1	76.7												
CN(C)C(=S)/N=c1\ss/c(=N\C(=S)N(C)C)n1-c1ccc2c(c1)OCO2	> 100	> 100	> 100	> 100	> 100	> 100	> 100	> 100	> 100											
O=C(/C=C/c1ccccc1Cl)c1ccccc1Cl	38.1	41.3	33.3	46.4	47.7	99.1	47.1	33.6		77.2										
Cc1ccc(N=NC(C(=O)c2ccccc2)C(=O)c2ccccc2)cc1	85	61.6	> 100	58	88.2	55.1	33.7	> 100		41.5										
CC(C)=[CH][Sb]([Br])([CH]=C(C)C)([CH]=C(C)C)[CH]=C(C)C	> 100	> 100	66.3		> 100	24.3	24.3	> 100	81.1		46.1	22.7	5.57		6.7	3.82	1.88	23	21.2	
COc1cc([N+](=O)[O-])ccc1NC(=O)C(F)(F)F	> 100	> 100	> 100	> 100	> 100	> 100	> 100	> 100												
N#CCCN(c1ccc(/C=C2\N=C(c3ccc(Cl)cc3)OC2=O)cc1)S(=O)(=O)c1ccccc1	> 100	> 100	> 100	> 100	> 100	> 100	> 100	> 100												
COc1cc2c3c(n(CCCCl)c(=O)c2cc1OC)-c1ccccc1C3=O	7.6				> 100	> 100		> 100		> 100	1.44				> 100	21.9		13.4		78.8
COc1cc(-c2c(C#N)c(N)n3c(nc4ccccc43)c2C#N)cc(Br)c1OC			> 100	> 100	> 100	> 100	> 100		> 100				97.5	> 100	> 100	3.3	> 100		4.37	
CC(=O)NC(CCCN)C(=O)NCc1ccccc1 (stereo not given)	> 100	> 100	> 100	> 100	> 100	> 100		> 100	> 100	> 100										
COc1cc(Cc2cc(OC)c(OC)c(OC)c2)ccc1O	> 100	> 100	> 100	> 100	> 100	> 100	6.55	> 100		> 100										
COc1ccc2cc(C(=O)/C=C/c3cccc(OC)c3OC)ccc2c1	31.9			40.7	12.1	27.4		33.6	12.9	> 100	11.6			20.2	2.84	14.3		8.88	3.76	36.2
CCc1cccc(C)c1NC(C)=O	> 100	> 100	> 100	> 100	> 100	> 100	> 100	> 100	> 100											
N#CCCN(CCC#N)c1ccc(/C=C2\N=C(CN3C(=O)c4ccccc4C3=O)OC2=O)cc1	> 100	> 100	> 100	> 100	> 100	> 100	> 100	> 100												
CC(C)=CC(=O)N1CCN(C(=O)C=C(C)C)CC1	> 100	> 100	> 100	> 100	> 100	> 100	> 100	> 100		> 100										
Cn1cc(C2=C(c3cn(CCCN=C(N)N)c4ccccc34)C(=O)NC2=O)c2ccccc21	> 25	> 25	> 25	> 25	> 25	> 25	> 25	> 25	> 25		> 25	> 25	14.8	> 25	> 25	> 25	> 25	> 25	> 20	
Cc1cccc(C(C)(C)C)c1NC(=O)CCc1n[nH]c(=S)o1	> 100	> 100	> 100	> 100	> 100	> 100	> 100	> 100		> 100										
COC(=O)C(=O)C(C(=O)C(=O)Nc1ccc(C)cc1C)c1nc2ccccc2[nH]c1=O (stereo not given)	68.9	> 100	> 100	> 100	> 100	> 100	> 100	> 100	60											
O=C(CC(=O)N1N=C(c2ccccc2)C(N=Nc2ccc(Cl)cc2)C1=O)Nc1ccccc1Cl (stereo not given)	85.1	37.2	> 100	> 100	> 100	51.4	> 100													
Cn1cc(C2=C(c3cn(C)c4c(N)cccc34)C(=O)NC2=O)c2ccccc21	> 25	> 23.6	> 19.6	> 22.1	> 25	> 14.2	7.28	> 25	6.85		0.857	8.3	4.2	6.41	0.385	1.38	1.05	2.85	1.03	
CCCCn1c(-c2ccc(C(=O)O/N=C(\N)c3ccc(OC)cc3)cc2)nc(-c2ccccc2)c1-c1ccccc1	2.71		1.16	> 100					3.24	2.41	1.29		0.334	2.35					1.64	0.816
